Data on four compounds can be found in PMC12156041, “Design, Synthesis and Antiplasmodial Activities of a Library of Fluorine-Based 3-Benzylmenadiones” (Molecules, 2025).

The thermodynamic solubility is solubility found after equilibrating the solid with the medium.

Series [1] in a line: Thermodynamic aqueous solubility (shake-flask, PBS-10% DMSO). It counts as physicochemical. The conditions noted are these: PBS with 10% DMSO, aqueous with cosolvent or surfactant or cyclodextrin, PBS pH 7.4, 10% DMSO, 20 °C, read-out: Thermodynamic aq. Solubility in PBS-10% DMSO. How it is done: Thermodynamic Aqueous Solubility: The shake-flask method enabled us to determine the apparent thermodynamic solubilities of the DMSO stock solutions of the compounds. […] The mixture was equilibrated at 20 °C for 24 h. After centrifugation, the supernatant was injected into an HPLC column coupled to an LC-MS apparatus (with UV–Vis detection) in order to determine the compound concentration. […] These solutions were also injected in order to calibrate the concentration determination process. […] Measurements were performed in duplicate.

The test system of series [2] is P. falciparum NF54 strain. The series is described as follows: P. falciparum NF54 [3H]hypoxanthine incorporation assay, 72 h, 0.5% Albumax. Particulars: Plasmodium falciparum. It counts as cell-based.
Series [3] has as its system P. falciparum NF54 strain. The series is described as follows: Serum shift assay, P. falciparum NF54 72 h in 50% human serum. The conditions noted are these: for Serum Shift: 50% human serum versus 0.5% Albumax; for IC50: Plasmodium falciparum, NF54, 72 h, read-out: IC50 NF54 72 h, 50% Human Serum.
The subject of series [4] is P. berghei GFP ANKA malaria strain. The experiment in a line: Drug assay in vivo in P. berghei-infected mice. Particulars: p.o. 4 × 50 mg/kg; for Parasitized RBC over 100: individual mice; for Parasitized RBC over 100 / Parasitized RBC over 100, Avg. / % of Control / Activity (%): day 4; for % of Control: parasitemia; for Activity (%): reduction of parasitemia versus control.

The test system of series [5] is P. berghei (GFP ANKA malaria strain). The experiment in a line: In vitro efficacy testing with P. berghei, 24 h (species shift assay). Particulars: Plasmodium berghei, read-out: IC50 Pb; P. berghei, 24 h assay. It counts as cell-based.
Series [6] concerns P. falciparum NF54 strain. The series is described as follows: P. falciparum NF54 24 h assay (species shift assay). The conditions noted are these: Plasmodium falciparum, NF54, read-out: IC50 Pf NF54; 24 h assay. It counts as cell-based.
Series [7] relates to rat myoblast cell line (L6 cells). The conditions noted are these: grey line ref 9; cited from earlier work.
A short description of series [8]: Chromatographic Hydrophobicity Index (CHI) by HPLC. It counts as physicochemical. Particulars: for CHI: Chromatographic Hydrophobicity Index, lipophilicity index; for chromatographic logD: pH 7.4, read-out: log D7.4. On the procedure:
Determination of CHI values: Compound lipophilicity influences permeability and propensity to nonspecific binding to plasma proteins. Although precise, the classical “shake flask” method is not always appropriate for the determination of high hydrophobicity, which can be alternatively measured using the Chromatographic Hydrophobicity Index method. This HPLC-based technique leads to rapid and cheap estimates of partition coefficients. […] A measure of 5 μL was injected onto the HPLC (with UV–Vis detection). […] The measurements were performed in duplicate. […] The CHI is approximately equal to the proportion of acetonitrile in the mobile phase when the compound is eluted from the column.

For series [9], the system named is P. falciparum NF54 strain. Particulars: grey line ref 9; cited from earlier work.
For the next series, the system named is P. falciparum strain Dd2. On the set-up: method as in doi:10.1002/ejoc.201600144. Particulars: multi-resistant P. falciparum strain Dd2 ref 12; cited from earlier work.
The mark [10] stands for this setting: NF54, 72 h, read-out: IC50 NF54 72 h, 0.5% Albumax, Table 5B, 0.5% Albumax.
Setting [11] is: NF54, 72 h, read-out: IC50 Pf NF54, 72 h, Table 5A, species shift experiment.
Where [12] appears, read: NF54, as stated in text, read-out: IC50 against P. falciparum NF54.

Converted amounts (≈) assume the structure as drawn. “And” between values parts separate entries of the source, which are not always exact repeats. Equal values may be shown once. Read-outs that look alike come from different tables or passages of the source. Where only a bound is given, the exact number is not on record here.

Turning to `CC1=C(Cc2ccc(F)c(C(F)(F)F)c2)C(=O)c2ccccc2C1=O` [A-b-9, 4′-fluoro-3′-trifluoromethyl-benzylmenadione], the thermodynamic solubility at 24 h in series [1] was 0.67 ± 0.01 µM (≈ 0.233 µg/mL). For the same compound, the IC50 in [2] (NF54, 72 h, P. falciparum NF54, 72 h, read-out: IC50) was 77 nM; in [2] (setting [10]) it was 59 nM; in series [2] (setting [11]), 62 nM; in series [2] (setting [12]), < 100 nM; in series [3], 355 nM; in series [5], 149 nM. The IC50 in series [6] came to 143 nM. Besides, the “Serum Shift” value in series [3] is given as 6.1. The “Parasitized RBC over 100” value in series [4] (50 mg/kg) was 70.3 and 49.1 and 52.4. The “Avg. Mouse Survival” value in series [4] worked out at 4.0 days. In addition, in series [4], the “Parasitized RBC over 100, Avg.” value was 57.27. In addition, the “% of Control” value in series [4] was determined as 97.23%. Moreover, the “Activity (%)” value in [4] was found to be 2.77%.

As for `CC1=C(Cc2c(F)c(F)c(F)c(F)c2F)C(=O)c2ccccc2C1=O` [A-b-47], in [1], the solubility (thermodynamic) at 24 h came out at 0.33 ± 0.01 µM (≈ 0.116 µg/mL). Also, the IC50 is 81 nM in [2] (setting [10]); 91 nM in series [2] (setting [11]); < 100 nM in series [2] (setting [12]); 324 nM in [3]; 265 nM in series [5]; 60 nM in series [9]. Besides, the IC50 in series [6] is 184 nM. Further, the “Serum Shift” value in series [3] is on record as 4.0. Moreover, in series [7], the Tox/L6 was 161.0 µM. Also, the “Parasitized RBC over 100” value in series [4] (50 mg/kg) is 65.4 and 62.4 and 72.5. For the same compound, the “Avg. Mouse Survival” value in series [4] was 4.0 days. The “Parasitized RBC over 100, Avg.” value in [4] amounted to 66.77. Also, the “% of Control” value in series [4] is 113.36%. Besides, in series [4], the “Activity (%)” value is −13.36%. Besides, the CHI in series [8] amounted to 115. For the same compound, the chromatographic logD in series [8] turned out to be 4.67.

`CC1=C(Cc2ccc(C(F)(F)F)cc2)C(=O)c2cc(F)ccc2C1=O` [Cpnd 6-F-PD]: the thermodynamic solubility at 24 h in series [1] was 0.06 ± 0.01 µM (≈ 0.0209 µg/mL). Also, the IC50 was 93 nM in [2] (setting [10]); 120 nM in series [2] (setting [11]); 80 nM in series [3]; 170 nM in series [5]; 59 ± 11 nM in the series on P. falciparum strain Dd2; 181 nM in [9]. In addition, the IC50 in series [6] was 104 nM. The “Serum Shift” value in series [3] came out at 0.9. Further, the Tox/L6 in series [7] is recorded as 44.7 µM. Moreover, the “Parasitized RBC over 100” value in series [4] (50 mg/kg) is 28.2 and 35.8 and 27.8. In addition, the “Avg. Mouse Survival” value in series [4] is 7.0 days. Moreover, in [4], the “Parasitized RBC over 100, Avg.” value stood at 30.60. Also, the “% of Control” value in [4] was found to be 51.95%. The “Activity (%)” value in series [4] (50 mg/kg) amounted to 48.05%; in series [4] (listed as 6-fluoro–plasmodione, 50 mg/kg), 50%. The compound also gave a CHI in series [8] of 117. Further, the chromatographic logD in [8] was 4.75.

Regarding `CC1=C(Cc2ccc(C(F)(F)F)cc2)C(=O)c2ccc(F)cc2C1=O` [Cpnd 7-F-PD], in series [1], the solubility (thermodynamic) at 24 h was 0.59 ± 0.01 µM (≈ 0.205 µg/mL). Moreover, the IC50 in [2] (setting [10]) stood at 89 nM. In [2] (setting [11]), the IC50 was found to be 93 nM. Moreover, in series [3], the “Serum Shift” value is on record as 4.2 and the IC50 amounted to 377 nM. Besides, the “Parasitized RBC over 100” value in [4] (50 mg/kg) is 64.7 and 69.0 and 62.2. For the same compound, in series [4], the “Avg. Mouse Survival” value worked out at 4.0 days; the “Parasitized RBC over 100, Avg.” value is recorded as 65.30; the “% of Control” value was 110.87%; the “Activity (%)” value is listed as −10.87%. In addition, the IC50 in series [5] amounted to 138 nM. Besides, the IC50 in series [6] was determined as 157 nM.
